From patent US8192962B2, “Processes for detecting toxic substances” (Daikin Industries, Ltd., priority 2001, dated 2012)

Tested on: Unknown protein yeast genes
Assay: DNA chip mRNA expression in yeast, unknown protein yeast genes (Table 1)
Type: cell-based, Saccharomyces cerevisiae S288C
Protocol: Yeast (Saccharomyces cerevisiae S288C (α SUC2mal mel gap2 CUP1)) were incubated at 25° C. on YPD medium (yeast extract 1%, polypepton 2%, glucose 2%). One of toxic chemical substances was added to the cells at logarithmic growth phase, and the cells were further incubated for two hours. Cells were cultured without any chemical substance in the same condition, and were used as control. Concentrations of the chemical substances were defined to inhibit the growth of the yeast but not lead to death.
After completion of the incubation, the culture was centrifuged to collect the cells. To the cells, sodium acetate buffer (50 mM sodium acetate, 10 mM EDTA, 1% SDS) was added, and the mixture was shaken at 65° C. for five minutes, followed by returning to room temperature, and obtaining the supernatant, of which the procedures were repeated two times. To the supernatant, ½ amount of a solution of phenol/chloroform was added, and the mixture was centrifuged to give a supernatant, which was added with an equal amount of chloroform, and the mixture was centrifuged to give a supernatant. To the supernatant, an equal amount of isopropanol containing 0.3 M sodium acetate was added, and the mixture was allowed to stand at room temperature for 30 minutes, after which the mixture was centrifuged to give a sediment of the whole RNAs. Seventy % ethanol was added to the sediment, and the mixture was again centrifuged to give a sediment, which was then dried and dissolved in water. mRNA was isolated from the whole RNAs as followings. In view of the fact that a poly A chain is attached to the 3′ terminus of mRNA, a polynucleotide having a poly T structure which was immobilized on the surface of latex beads was used to trap the mRNA, and then the mRNA was washed and eluted with spine column (Oligotex-dT30<Super>mRNA Purification Kit, Takara). Reverse transcription of the mRNA was conducted with a reverse transcriptase (Super Script II Reverse Transcriptase; catalogue No. 18064-014, GibcoBRL) using fluorescence-labeled nucleotides to give cDNAs that were introduced with Cy3-dUTP or Cy5-dUTP during the reverse transcription.
The labeled cDNAs were dissolved in TE buffer (10mM Tris-HCl/1 mM EDTA, pH8.0), and the solution was dropped on the DNA chip containing the whole genes of yeast (DNA Chip Research Inc. Japan) so that the cDNAs were hybridized on the DNA chip at 65° C. for over 12 hours. The fluoresces intensity of the DNA chip was read with a scanner, and the ratio relative to the fluorescence intensity resulting from the absence of chemical substance was estimated as the following, which is shown in Tables 1 to 9: […]

SMILES: CCCCCCCCCCCCc1ccc(S(=O)(=O)[O-])cc1.[Na+] [(17), sodium dodecylbenzosulfonate]
- The level of expressed mRNA in the presence of chemical substance/The level of expressed mRNA in the absence of chemical substance (yeast gene YKL195W, incubated two hours with chemical substance): 1.4
- The level of expressed mRNA in the presence of chemical substance/The level of expressed mRNA in the absence of chemical substance (yeast gene YKR091W, incubated two hours with chemical substance): 1.6
- The level of expressed mRNA in the presence of chemical substance/The level of expressed mRNA in the absence of chemical substance (yeast gene YLR054C, incubated two hours with chemical substance): 1.6
- The level of expressed mRNA in the presence of chemical substance/The level of expressed mRNA in the absence of chemical substance (yeast gene YLR149C, incubated two hours with chemical substance): 1.3
- The level of expressed mRNA in the presence of chemical substance/The level of expressed mRNA in the absence of chemical substance (yeast gene YLR152C, incubated two hours with chemical substance): 1.5
- The level of expressed mRNA in the presence of chemical substance/The level of expressed mRNA in the absence of chemical substance (yeast gene YLR194C, incubated two hours with chemical substance): 1.0
- The level of expressed mRNA in the presence of chemical substance/The level of expressed mRNA in the absence of chemical substance (yeast gene YLR324W, incubated two hours with chemical substance): 1.2
- The level of expressed mRNA in the presence of chemical substance/The level of expressed mRNA in the absence of chemical substance (yeast gene YLR350W, incubated two hours with chemical substance): 1.6
- The level of expressed mRNA in the presence of chemical substance/The level of expressed mRNA in the absence of chemical substance (yeast gene YLR387C, incubated two hours with chemical substance): 1.0
- The level of expressed mRNA in the presence of chemical substance/The level of expressed mRNA in the absence of chemical substance (yeast gene YLR460C): 1.0
- The level of expressed mRNA in the presence of chemical substance/The level of expressed mRNA in the absence of chemical substance (yeast gene YML117W, incubated two hours with chemical substance): 1.1
- The level of expressed mRNA in the presence of chemical substance/The level of expressed mRNA in the absence of chemical substance (yeast gene YMR009W, incubated two hours with chemical substance): 2.7
- The level of expressed mRNA in the presence of chemical substance/The level of expressed mRNA in the absence of chemical substance (yeast gene YMR067C, incubated two hours with chemical substance): 1.0
- The level of expressed mRNA in the presence of chemical substance/The level of expressed mRNA in the absence of chemical substance (yeast gene YMR090W): 1.8
- The level of expressed mRNA in the presence of chemical substance/The level of expressed mRNA in the absence of chemical substance (yeast gene YMR095C, incubated two hours with chemical substance): 1.0
- The level of expressed mRNA in the presence of chemical substance/The level of expressed mRNA in the absence of chemical substance (yeast gene YMR097C, incubated two hours with chemical substance): 1.4
- The level of expressed mRNA in the presence of chemical substance/The level of expressed mRNA in the absence of chemical substance (yeast gene YMR102C, incubated two hours with chemical substance): 2.4
- The level of expressed mRNA in the presence of chemical substance/The level of expressed mRNA in the absence of chemical substance (yeast gene YMR107W, incubated two hours with chemical substance): 1.3
- The level of expressed mRNA in the presence of chemical substance/The level of expressed mRNA in the absence of chemical substance (yeast gene YMR180C, incubated two hours with chemical substance): 1.4
- The level of expressed mRNA in the presence of chemical substance/The level of expressed mRNA in the absence of chemical substance (yeast gene YMR184W, incubated two hours with chemical substance): 1.4
- The level of expressed mRNA in the presence of chemical substance/The level of expressed mRNA in the absence of chemical substance (yeast gene YMR191W, incubated two hours with chemical substance): 1.2
- The level of expressed mRNA in the presence of chemical substance/The level of expressed mRNA in the absence of chemical substance (yeast gene YMR295C, incubated two hours with chemical substance): 2.1
- The level of expressed mRNA in the presence of chemical substance/The level of expressed mRNA in the absence of chemical substance (yeast gene YMR316W, incubated two hours with chemical substance): 6.9
- The level of expressed mRNA in the presence of chemical substance/The level of expressed mRNA in the absence of chemical substance (yeast gene YNL044W, incubated two hours with chemical substance): 3.1
- The level of expressed mRNA in the presence of chemical substance/The level of expressed mRNA in the absence of chemical substance (yeast gene YNL074C, incubated two hours with chemical substance): 1.1
- The level of expressed mRNA in the presence of chemical substance/The level of expressed mRNA in the absence of chemical substance (yeast gene YNL092W, incubated two hours with chemical substance): 1.7
- The level of expressed mRNA in the presence of chemical substance/The level of expressed mRNA in the absence of chemical substance (yeast gene YNL115C, incubated two hours with chemical substance): 1.6
- The level of expressed mRNA in the presence of chemical substance/The level of expressed mRNA in the absence of chemical substance (yeast gene YNL156C, incubated two hours with chemical substance): 1.8
- The level of expressed mRNA in the presence of chemical substance/The level of expressed mRNA in the absence of chemical substance (yeast gene YNL234W, incubated two hours with chemical substance): 1.0
- The level of expressed mRNA in the presence of chemical substance/The level of expressed mRNA in the absence of chemical substance (yeast gene YNL281W, incubated two hours with chemical substance): 0.9
- The level of expressed mRNA in the presence of chemical substance/The level of expressed mRNA in the absence of chemical substance (yeast gene YNL305C, incubated two hours with chemical substance): 1.7
- The level of expressed mRNA in the presence of chemical substance/The level of expressed mRNA in the absence of chemical substance (yeast gene YNR068C, incubated two hours with chemical substance): 1.0
- The level of expressed mRNA in the presence of chemical substance/The level of expressed mRNA in the absence of chemical substance (yeast gene YOL032W, incubated two hours with chemical substance): 1.7
- The level of expressed mRNA in the presence of chemical substance/The level of expressed mRNA in the absence of chemical substance (yeast gene YOL036W, incubated two hours with chemical substance): 1.1
- The level of expressed mRNA in the presence of chemical substance/The level of expressed mRNA in the absence of chemical substance (yeast gene YOL047C, incubated two hours with chemical substance): 1.5
- The level of expressed mRNA in the presence of chemical substance/The level of expressed mRNA in the absence of chemical substance (yeast gene YOL071W, incubated two hours with chemical substance): 1.3
- The level of expressed mRNA in the presence of chemical substance/The level of expressed mRNA in the absence of chemical substance (yeast gene YOL082W, incubated two hours with chemical substance): 1.6
- The level of expressed mRNA in the presence of chemical substance/The level of expressed mRNA in the absence of chemical substance (yeast gene YOL083W, incubated two hours with chemical substance): 1.4
- The level of expressed mRNA in the presence of chemical substance/The level of expressed mRNA in the absence of chemical substance (yeast gene YOL117W, incubated two hours with chemical substance): 1.3
- The level of expressed mRNA in the presence of chemical substance/The level of expressed mRNA in the absence of chemical substance (yeast gene YOL131W, incubated two hours with chemical substance): 1.1
- The level of expressed mRNA in the presence of chemical substance/The level of expressed mRNA in the absence of chemical substance (yeast gene YOL150C): 2.7
- The level of expressed mRNA in the presence of chemical substance/The level of expressed mRNA in the absence of chemical substance (yeast gene YOL162W, incubated two hours with chemical substance): 1.2
- The level of expressed mRNA in the presence of chemical substance/The level of expressed mRNA in the absence of chemical substance (yeast gene YOR019W, incubated two hours with chemical substance): 1.7
- The level of expressed mRNA in the presence of chemical substance/The level of expressed mRNA in the absence of chemical substance (yeast gene YOR197W, incubated two hours with chemical substance): 1.5
- The level of expressed mRNA in the presence of chemical substance/The level of expressed mRNA in the absence of chemical substance (yeast gene YPL087W, incubated two hours with chemical substance): 2.1
- The level of expressed mRNA in the presence of chemical substance/The level of expressed mRNA in the absence of chemical substance (yeast gene YPL196W, incubated two hours with chemical substance): 1.4
- The level of expressed mRNA in the presence of chemical substance/The level of expressed mRNA in the absence of chemical substance (yeast gene YPL206C, incubated two hours with chemical substance): 1.4
- The level of expressed mRNA in the presence of chemical substance/The level of expressed mRNA in the absence of chemical substance (yeast gene YPL222W, incubated two hours with chemical substance): 1.1
- The level of expressed mRNA in the presence of chemical substance/The level of expressed mRNA in the absence of chemical substance (yeast gene YPR023C, incubated two hours with chemical substance): 1.0
- The level of expressed mRNA in the presence of chemical substance/The level of expressed mRNA in the absence of chemical substance (yeast gene YPR151C, incubated two hours with chemical substance): 1.3
